Consider 1 molecule from patent US20230066882A1, “Stable Reporter Flavivirus” (priority 2021, published 2023).

The test system of this test is panel of stable reporter viruses (DENV1, DENV2, DENV3, DENV4, ZIKV, YFV, JEV). The format is cell-based.

Structures are written as SMILES.

With `C#C[C@@]1(O)[C@H](O)[C@@H](CO)O[C@H]1n1ccc2c(N)ncnc21` [NITD008], the EC50 values result was “potent” and the “luciferase expression compared to control” value is “decreased luciferase expression”.
